This is an account of results in patent US6887873B2, “Triazine derivatives and their application as antitelomerase agents” (Aventis Pharma S.A., priority 2001, dated 2005).

The subject of experiment [1] is G-quadruplex of oligonucleotide GGGTTAGGGTTAGGGTTAGGG (3.5 repeats of the human telomereic motif). As to the kind of experiment: G-quadruplex stabilizing activity, fluorescence Tm (FAM+DABCYL oligonucleotide). It counts as binding. The text has this: The G-quadruplex stabilizing activity may be determined by a method using the formation of a complex with fluorescein of which the experimental protocol is described below.
All the nucleotides, modified or otherwise, were synthesized by Eurogentec SA, Seraing, Belgium. The oligonucleotide FAM+DABCYL carries the catalogue reference OL-0371-0802. It has the sequence: […] corresponding to 3.5 repeats of the human telomereic motif (strand rich in G). The fluorescein is attached to the 5′ end, the DABCYL to the 3′ end, by the chemical arms described by Eurogentec. The concentration of the samples is checked by spectrophotometry, recording the absorbance spectrum between 220 and 700 nm and using the molar extinction coefficient provided by the supplier.
All the experiments were carried out in a 10 mM sodium cacodylate buffer pH 7.6 containing 0.1 M lithium chloride (or sodium chloride). The absence of fluorescent contamination in the buffer was checked beforehand. The fluorescent oligonucleotide is added at the final concentration of 0.2 μM.
All the measurements of fluorescence were carried out on a Spex Fluorolog DM1B apparatus, using an excitation line width of 1.8 nm and an emission line width of 4.5 nm. The samples are placed in a microquartz cuvette of 0.2×1 cm. The temperature of the sample is controlled by an external water bath. The oligonucleotide alone was analysed at 20, 30, 40, 50, 60, 70 and 80° C. The emission spectra are recorded using an excitation wavelength of 470 nm. The excitation spectra are recorded using either 515 nm or 588 nm as emission wavelength. The spectra are corrected for the response of the instrument by reference curves. A high extinction (80-90%) of the fluorescence of fluorescein at room temperature is observed, in agreement with an intramolecular folding of the oligonucleotide at 20° C. in the form of a G-quadruplex, which induces juxtaposition of its 5′ and 3′ ends which are respectively linked to fluorescein and to DABCYL. This juxtaposition causes an already-described phenomenon of extinction of fluorescence which is used for “molecular beacons”.
An oligonucleotide stock solution at the strand concentration of 0.2 μM in 0.1 M LiCl, 10 mM cacodylate buffer, pH 7.6, is prepared beforehand, heated briefly at 90° C. and slowly cooled to 20° C., and then distributed in aliquots of 600 μl in the fluorescence cuvettes. 3 μl of water (for the control) or 3 μl of test product (stock at 200 μM, final concentration 1 μM) are then added and mixed. The samples are then allowed to incubate for at least 1 hour at 20° C. before each measurement. The use of longer incubation times (up to 24 hours) has no influence on the result obtained.
Each experiment allows the measurement of only one sample. The latter is first incubated at an initial temperature of 20° C., heated to 80° C. over 38 minutes, left for 5 minutes at 80° C. and then cooled to 20° C. over 62 minutes. During this time, the fluorescence is measured simultaneously at two emission wavelengths (515 nm and 588 nm) using 470 nm as excitation wavelength. A measurement is carried out every 30 seconds. The temperature of the water bath is recorded in parallel, and the fluorescence profile as a function of the temperature is reconstituted from these values. The fluorescence profiles are then normalized between 20° C. and 80° C., and the temperature for which the intensity of emission at 515 nm is the mean of those at high and low temperature is called Tm. Under these conditions, the Tm of the reference sample without addition of product is 44° C. in a lithium chloride buffer. This temperature is increased to more than 55° C. in a sodium chloride buffer. The addition of a G-quadruplex-stabilizing compound induces an increase in the Tm. This increase is judged to be significant if it is greater than 3°.

Experiment [2] deals with human telomerease (HL60 cell extract). As to the kind of experiment: Antitelomerease activity: extension of oligonucleotide TS followed by PCR amplification, with HL60 extract. It counts as biochemical. As to conditions: read-out: TRAP IC50. On the procedure: The antitelomerease biological activity is determined by the following experimental protocol:
The leukaemia line HL60 is obtained from ATCC (American Type Culture Collection, Rockville, USA). The cells are cultured in suspension in RPMI 1640 medium containing L-glutamine at 2 mM, penicillin 200 U/ml, streptomycin 200 μg/ml, gentamycin 50 μg/ml and supplemented with 10% heat-inactivated foetal calf serum.
An aliquot of 10^5 cells is centrifuged at 3000×G and the supernatant discarded. The cell pellet is resuspended by several successive pipettings in 200 μl of lysis buffer containing 0.5% CHAPS, 10 mM Tris-HCl, pH 7.5, 1 mM MgCl2, 1 mM EGTA, 5 mM β-mercaptoethanol, 0.1 mM PMSF and 10% glycerol and is stored in ice for 30 minutes. The lysate is centrifuged at 160,000×G for 20 minutes at 4° C. and 160 μl of supernatant are recovered. The proteins in the extract are assayed by the Bradford method. The extract is stored at −80° C.
The inhibition of the telomerease activity is determined by a protocol for extension of the oligonucleotide TS (^5′AATCGTTCGAGCAGAGTT^3′), in the presence of a cellular extract enriched in telomerease activity and compounds which are added at various concentrations (10, 1, 0.1 and 0.01 μM). The extension reaction is followed by a PCR amplification of the extension products with the aid of the oligonucleotides TS and CXext (^5′[…]^3′).
The reaction medium is prepared based on the following composition:
The oligonucleotides are obtained from Eurogentec (Belgium) and are stored at −20° C. at a stock concentration of 1 mg/ml in distilled water.
The reaction samples are assembled in 0.2 ml PCR tubes and one drop of paraffin oil is deposited on each of the reactions of the experiment before closing the tubes.
The reaction samples are then incubated in a Cetus 4800-type PCR apparatus under the following temperature conditions: • 15 minutes at 30° C., • 1 minute at 90° C., • followed by 30 cycles of, • 30 seconds at 94° C., • 30 seconds at 50° C., • and 1 minute 30 seconds at 72° C., • followed by a final cycle of 2 minutes at 72° C.
For each of the samples, an aliquot of 10 μl is pipetted under the oil layer and mixed with 5 μl of a loading buffer containing:
The samples are then analysed by electrophoresis on 12% acrylamide gel in a 1×TBE buffer for 1 hour at a voltage of 200 volts, with the aid of a Novex electrophoresis system.
The acrylamide gels are then dried on a sheet of Whatmann 3 mm paper at 80° C. for 1 hour.
The analysis and the quantification of the reaction products are carried out with the aid of an InstantImager apparatus (Pacard).
For each compound concentration tested, the results are expressed as percentage inhibition of the reaction and calculated from the untreated enzymatic control and from the enzyme-free sample (blank) according to the following formula: (compound value−blank value/enzymatic control value−blank value)×100.
The concentration of compound inducing a 50% inhibition of the telomerease reaction (IC50) is determined with the aid of a semilogarithmic graphical representation of the inhibition values obtained as a function of each of the compound concentrations tested.
A compound is considered to be active as an antitelomerease agent when the quantity inhibiting 50% of the telomerease reaction is in particular less than 5 μM.

SMILES strings stand for the structures.

Regarding `Cc1cc(N)c2cc(Nc3nc(NCC4CCCN4)nc(Nc4ccc5nc(C)cc(N)c5c4)n3)ccc2n1` (stereo not drawn) [Example 16], the “G4 delta Tm” value in experiment [1] worked out at 7.3 °C. The IC50 in experiment [2] came out at 80 nM.

On to `Cc1cc(N(C)C)c2cc(Nc3nc(NCC4CCCN4)nc(Nc4ccc5nc(C)cc(N(C)C)c5c4)n3)ccc2n1` (stereo not drawn) [Example 22], for which the “G4 delta Tm” value in experiment [1] amounted to 2.7 °C. Besides, in experiment [2], the 50% inhibitory concentration (IC50) was found to be 340 nM.

On to `Cc1cc(N(C)C)c2cc(Nc3nc(Nc4ccc5nc(C)cc(N(C)C)c5c4)nc(N4CCCC4)n3)ccc2n1` [Example 23], for which, in experiment [1], the “G4 delta Tm” value is 9.2 °C. For the same molecule, in experiment [2], the IC50 was determined as 3000 nM.

With `Cc1cc(N(C)C)c2cc(Nc3nc(Nc4ccc5nc(C)cc(N(C)C)c5c4)nc(N4CCOCC4)n3)ccc2n1` [Example 24], the “G4 delta Tm” value in experiment [1] was found to be 9.7 °C. Moreover, in experiment [2], the half-maximal inhibitory concentration (IC50) came out at 1600 nM.

With `COCCNc1nc(Nc2ccc3nc(C)cc(N(C)C)c3c2)nc(Nc2ccc3nc(C)cc(N(C)C)c3c2)n1` [Example 25], in experiment [1], the “G4 delta Tm” value was found to be 4.2 °C. Further, the IC50 in experiment [2] is 2200 nM.

For `Cc1cc(N(C)C)c2cc(Nc3nc(NCCc4ccccc4)nc(Nc4ccc5nc(C)cc(N(C)C)c5c4)n3)ccc2n1` [Example 26], in experiment [1], the “G4 delta Tm” value stood at 4.8 °C. Moreover, in experiment [2], the IC50 was 1100 nM.

Consider `Cc1cc(N)c2cc(Nc3nc(Nc4ccc5nc(C)cc(N)c5c4)nc(OCCCN(C)C)n3)ccc2n1` [Example 31, 2,4-bis(4-amino-2-methylquinolin-6-yl)amino-6-(3-dimethylaminopropyl)oxy-[1,3,5]triazine], for which, in experiment [1], the “G4 delta Tm” value worked out at 15.3 °C. Further, the 50% inhibitory concentration (IC50) in experiment [2] stood at 300 nM.

Regarding `Cc1cc(N)c2cc(Nc3nc(Nc4ccc5nc(C)cc(N)c5c4)nc(Oc4ccncc4)n3)ccc2n1` [Example 32, 2,4-bis(4-amino-2-methylquinolin-6-yl)amino-6-(pyridin-4-yl)oxy-[1,3,5]triazine], the “G4 delta Tm” value in experiment [1] worked out at 10.0 °C. The half-maximal inhibitory concentration (IC50) in experiment [2] was 300 nM.

Regarding `Cc1cc(N)c2cc(Nc3nc(Nc4ccc5nc(C)cc(N)c5c4)nc(OCc4ccccc4)n3)ccc2n1` [Example 33, 2,4-bis(4-amino-2-methylquinolin-6-yl)amino-6-(phenylmethyl)oxy-[1,3,5]triazine], in experiment [1], the “G4 delta Tm” value stood at 10.0 °C. The IC50 in experiment [2] came out at 400 nM.

With `CC(=O)NCCNc1nc(Nc2ccc3nc(C)cc(N)c3c2)nc(Nc2ccc3nc(C)cc(N)c3c2)n1` [Example 35], in experiment [1], the “G4 delta Tm” value was found to be 11.0 °C. Also, in experiment [2], the half-inhibitory concentration (IC50) is 500 nM.

As for `CCN(CC)CCNc1nc(Nc2ccc3nc(C)cc(N)c3c2)nc(Nc2ccc3nc(C)cc(N)c3c2)n1` [Example 36], the “G4 delta Tm” value in experiment [1] was 17.5 °C. The IC50 in experiment [2] came to 240 nM.

With `Cc1cc(N)c2cc(Nc3nc(NCCN(CCN(C)C)Cc4ccccc4)nc(Nc4ccc5nc(C)cc(N)c5c4)n3)ccc2n1` [Example 37], the “G4 delta Tm” value in experiment [1] worked out at 17.5 °C. The IC50 in experiment [2] was 230 nM.

As to `COC(=O)NCCNc1nc(Nc2ccc3nc(C)cc(N)c3c2)nc(Nc2ccc3nc(C)cc(N)c3c2)n1` [Example 38], the “G4 delta Tm” value in experiment [1] amounted to 9.5 °C. The IC50 in experiment [2] came to 1000 nM.

Turning to `Cc1cc(N)c2cc(Nc3nc(NCCN(C(C)C)C(C)C)nc(Nc4ccc5nc(C)cc(N)c5c4)n3)ccc2n1` [Example 39], the “G4 delta Tm” value in experiment [1] is 19.5 °C. The concentration for half-maximal inhibition (IC50) in experiment [2] was determined as 230 nM.

Consider `CCN(CC)CCN(CCN(CC)CC)c1nc(Nc2ccc3nc(C)cc(N)c3c2)nc(Nc2ccc3nc(C)cc(N)c3c2)n1` [Example 40], for which the “G4 delta Tm” value in experiment [1] amounted to 19 °C. Further, the IC50 in experiment [2] turned out to be 230 nM.

Consider `Cc1cc(N)c2cc(Nc3nc(Nc4ccc5nc(C)cc(N)c5c4)nc(N4CCCN(C)CC4)n3)ccc2n1` [Example 42], for which, in experiment [1], the “G4 delta Tm” value was determined as 15.5 °C. In addition, the IC50 in experiment [2] came out at 50 nM.

On to `CCN(CC)CCN1CCN(c2nc(Nc3ccc4nc(C)cc(N)c4c3)nc(Nc3ccc4nc(C)cc(N)c4c3)n2)CC1` [Example 44], for which the “G4 delta Tm” value in experiment [1] turned out to be 17 °C. Also, the IC50 in experiment [2] stood at 100 nM.

Regarding `Cc1cc(N)c2cc(Nc3nc(NCCN4CCCC4)nc(Nc4ccc5nc(C)cc(N)c5c4)n3)ccc2n1` [Example 46], the “G4 delta Tm” value in experiment [1] was determined as 18.5 °C. Further, the IC50 in experiment [2] came out at 1000 nM.

With `Cc1cc(N)c2cc(Nc3nc(Nc4ccc5nc(C)cc(N)c5c4)nc(N(C)CC4CCN(C)CC4)n3)ccc2n1` [Example 48], the “G4 delta Tm” value in experiment [1] is 14 °C. For the same molecule, the half-maximal inhibitory concentration (IC50) in experiment [2] was 100 nM.

In the case of `Cc1cc(N)c2cc(Nc3nc(NCc4ccccn4)nc(Nc4ccc5nc(C)cc(N)c5c4)n3)ccc2n1` [Example 49], the “G4 delta Tm” value in experiment [1] came to 10 °C. Moreover, the IC50 in experiment [2] was 1000 nM.

As to `Cc1cc(N)c2cc(Nc3nc(NCc4ccccc4)nc(Nc4ccc5nc(C)cc(N)c5c4)n3)ccc2n1` [Example 50], the “G4 delta Tm” value in experiment [1] worked out at 7 °C. For the same molecule, the concentration for half-maximal inhibition (IC50) in experiment [2] stood at 220 nM.

As for `COc1cccc(CNc2nc(Nc3ccc4nc(C)cc(N)c4c3)nc(Nc3ccc4nc(C)cc(N)c4c3)n2)c1` [Example 52], the “G4 delta Tm” value in experiment [1] was 6.5 °C. For the same molecule, the 50% inhibitory concentration (IC50) in experiment [2] came to 1300 nM.

Take `CCN(CCN(C)C)c1nc(Nc2ccc3nc(C)cc(N)c3c2)nc(Nc2ccc3nc(C)cc(N)c3c2)n1` [Example 53]: in experiment [1], the “G4 delta Tm” value worked out at 15.5 °C. Further, the IC50 in experiment [2] was 200 nM.

Take `Cc1cc(N)c2cc(Nc3nc(NCC[N+](C)(C)C)nc(Nc4ccc5nc(C)cc(N)c5c4)n3)ccc2n1` [Example 54]: the “G4 delta Tm” value in experiment [1] was 16 °C. Further, in experiment [2], the IC50 was determined as 170 nM.

By IC50 is commonly meant the midpoint of a concentration-inhibition curve.
